Assay results taken from patent US20130267516A1, “SUBSTITUTED CYCLOPENTYL-AZINES AS CASR-ACTIVE COMPOUNDS” (LEO PHARMA A/S, priority 2010, published 2013).

Assay: Clearance in human liver microsomes
Type: in vitro ADME
Settings: hepatic extraction ratio; 0.5 μM compound, 0.5 mg/mL microsomes, 1 mM NADPH, 30 min
Method: Test compound concentration is 0.5 μM, microsome concentration is 0.5 mg/mL and NADPH concentration is 1 mM in the incubation. The described method is performed by the liquid handling system Tecan RSP and is based on a 96-well format.
Control incubations with test compound without NADPH and test compound without microsomes are conducted to investigate non-CYP mediated metabolism and stability in phosphate buffer at 37° C., respectively.
The human liver microsomal suspension in phosphate buffer is mixed with NADPH. The mixture is pre-heated (7 min) to 37° C. Test compound is added, and the mixture is incubated for 30 minutes. Incubations are run in duplicate. Samples are withdrawn at predetermined stop times and mixed with methanol containing internal standard (IS) to terminate all enzyme activity and precipitate proteins. A control without NADPH (to detect problems such as nonspecific protein binding, heat instability or non-CYP mediated metabolism) and a control without microsomes (for assessing compound stability in the absence of any active enzymes) are tested.
The percentage of organic solvent in the incubations is less than 1%. Careful inspections of reagents are performed prior to the start of any experiment to ensure all reagents are in solution.
The 96-well plates are centrifuged. Test compound depletion, using a compound specific LC/MS/MS method, is determined.
The logarithm of the peak area ratios of test compound to internal standard (IS) versus incubation time is plotted in a graph.
The rate constant (k) (min^−1) of test compound depletion is calculated from the linear part of the curve and the half-time (t1/2) in minutes can be calculated from the rate constant (Eq. 2).
Intrinsic clearance (Clint) (mL/min/mg protein) is calculated from: […]
where c is the microsomal protein concentration in mg/mL.
Intrinsic clearance is the maximum ability of the liver to extract a drug in the absence of blood flow restrictions.
Conversion to apparent clearance (Clapp) (mL/min/kg) is done by Eq. 4:
Clapp=Clint×a×b/d (Eq. 4)
where a, b and d are the scaling factors for normalizing Clint to human body weight.
The following human scaling factors are used:
a: 45 (microsomal protein/liver weight (mg/g)) b: 1500 (liver weight (g)) d: 70 (body weight (kg))
Hepatic clearance (Clh) (mL/min/kg) based on the well-stirred model is described as followed:
Clh=(Clapp·Q)/(Clapp+Q) (Eq. 5)
where Q is the liver blood flow in mL/min/kg (20 in humans).
Dividing hepatic clearance with liver blood flow, the hepatic extraction ratio (%) can be calculated:
Apparent clearance below approximately 10 mL/min/kg human body weight (corresponding to extraction ratio of approx. 33%) is considered as low clearance (high metabolic stability). Apparent intrinsic clearance above approximately 60 mL/min/kg human body weight (corresponding to extraction ratio of approx. 75%) is considered as high clearance (low metabolic stability).

Clearance (% Eh) in human liver microsomes, A (A: Eh < 33%):
C[C@@H](N[C@H]1CC[C@@H](c2ccc(NCCNCCO)nc2)C1)c1cccc2ccccc12.O=CO.O=CO.O=CO [Compound 101, 2-[2-[[5-[(1R,3S)-3-[[(1R)-1-(1-Naphthyl)ethyl]amino]cyclopentyl]-2-pyridyl]amino]ethylamino]ethanol]
COc1cc([C@@H](C)N[C@H]2CC[C@@H](c3ccc(NC4CCNCC4)nc3)C2)ccc1F [Compound 107, 5-[(1R,3S)-3-[[(1R)-1-(4-Fluoro-3-methoxy-phenyl)ethyl]amino]cyclopentyl]-N-(4-piperidyl)pyridin-2-amine]
COc1cc([C@@H](C)N[C@H]2CC[C@@H](c3ccc(N4CCNC(=O)C4)nc3)C2)ccc1F [Compound 109, 4-[5-[(1R,3S)-3-[[(1R)-1-(4-Fluoro-3-methoxy-phenyl)ethyl]amino]cyclopentyl]-2-pyridyl]piperazin-2-one]
COc1cc([C@@H](C)N[C@H]2CC[C@@H](c3ccc(NCCS(N)(=O)=O)nc3)C2)ccc1F [Compound 113, 2-[[5-[(1R,3S)-3-[[(1R)-1-(4-Fluoro-3-methoxyphenyl)ethyl]amino]cyclopentyl]-2-pyridyl]amino]ethanesulfonamide]
COc1cc([C@@H](C)N[C@H]2CC[C@@H](c3ccc(NCC(O)CO)nc3)C2)ccc1F (stereo partly drawn) [Compound 115, 3-[[5-[(1R,3S)-3-[[(1R)-1-(4-Fluoro-3-methoxyphenyl)ethyl]amino]cyclopentyl]-2-pyridyl]amino]propane-1,2-diol]
COc1cc([C@@H](C)N[C@H]2CC[C@@H](c3ccc(N4CCN(C(C)=O)CC4)nc3)C2)ccc1F [Compound 116, 1-[4-[5-[(1R,3S)-3-[[(1R)-1-(4-Fluoro-3-methoxyphenyl)ethyl]amino]cyclopentyl]-2-pyridyl]piperazin-1-yl]ethanone]
COc1cc([C@@H](C)N[C@H]2CC[C@@H](c3cnc(N4CCNC(=O)C4)nc3)C2)ccc1F [Compound 126, 4-[5-[(1R,3S)-3-[[(1R)-1-(4-Fluoro-3-methoxy-phenyl)ethyl]amino]cyclopentyl]pyrimidin-2-yl]piperazin-2-one]
COc1cc([C@@H](C)N[C@H]2CC[C@@H](c3cnc(N4CCN(C(C)=O)CC4)nc3)C2)ccc1F.O=CO [Compound 127, 1-[4-[5-[(1R,3S)-3-[[(1R)-1-(4-Fluoro-3-methoxy-phenyl)ethyl]amino]cyclopentyl]pyrimidin-2-yl]piperazin-1-yl]ethanone]
